{
  "source": "ChEMBL document CHEMBL5209580",
  "about": "“Flow cytometry transport assay for SLC2A3 using HEK293 JumpIN TRex SLC2A3 WT-OE cells” (2022)",
  "molecular_target": "T1, Solute carrier family 2, facilitated glucose transporter member 3 (Homo sapiens, UniProt P11169)",
  "T1 sequence (P11169 whole entry)": "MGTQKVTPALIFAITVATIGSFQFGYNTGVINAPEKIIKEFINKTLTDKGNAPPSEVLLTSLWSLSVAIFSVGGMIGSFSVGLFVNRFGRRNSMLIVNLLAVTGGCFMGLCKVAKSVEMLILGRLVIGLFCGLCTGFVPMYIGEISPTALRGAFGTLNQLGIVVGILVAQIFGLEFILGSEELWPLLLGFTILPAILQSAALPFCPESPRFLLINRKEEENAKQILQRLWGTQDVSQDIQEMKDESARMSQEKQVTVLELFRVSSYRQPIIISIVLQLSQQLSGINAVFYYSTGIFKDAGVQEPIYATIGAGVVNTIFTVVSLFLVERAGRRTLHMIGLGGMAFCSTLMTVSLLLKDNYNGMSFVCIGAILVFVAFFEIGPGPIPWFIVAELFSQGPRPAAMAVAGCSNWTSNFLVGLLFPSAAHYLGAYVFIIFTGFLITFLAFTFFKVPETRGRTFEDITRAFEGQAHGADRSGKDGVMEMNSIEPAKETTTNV",
  "assay": "Inhibition of the Glucose Transporter (GLUT3, SLC2A3) as assessed by a FRET based flow cytometry assay using a genetically-encoded biosensor for measuring free glucose (FLII12Pglu-700uDelta6) in HEK293 JumpIN TRex SLC2A3 WT-OE cells (PubChem AID: 1794827)",
  "type": "functional, cell-based",
  "data": [
    {"smiles": "O=C(Oc1cccc(F)c1OC(=O)c1cccc(O)c1)c1cccc(O)c1", "values": [
      {"measurement": "IC50", "value": "> 10", "unit": "µM"}
    ]}
  ]
}
